The values that follow come from article PMC11249646, “Small-Molecule Disruptors of the Interaction between Calcium- and Integrin-Binding Protein 1 and Integrin αIIbβ3 as Novel Antiplatelet Agents” (ACS Pharmacology & Translational Science, 2024).

The test has as its target T1, CIB1 and αIIb interaction (CIB1-GST : F-αIIb peptide) (Homo sapiens, UniProt Q99828).
T1 construct: made in house; host or cells: BL-21 plus RIL cells (E. coli)
T1 sequence (Q99828 1-191): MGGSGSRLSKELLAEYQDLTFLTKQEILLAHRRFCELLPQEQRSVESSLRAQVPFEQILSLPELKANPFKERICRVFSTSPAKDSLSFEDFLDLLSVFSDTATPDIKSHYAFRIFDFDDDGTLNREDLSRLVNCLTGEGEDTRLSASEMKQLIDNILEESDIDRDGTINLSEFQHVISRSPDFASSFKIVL
Kind of test: FP assay, 1536-well qHTS format (primary and confirmatory screen). It is filed as binding. The following applies: for Efficacy (%): negative = inhibition; for Curve Class: negative sign = inhibitory curve; for IC50: read-out: IC50. Background: In qHTS, concentration-response curves come from the screen itself.

The mark [1] stands for this setting: qHTS primary screen hits, Table S2.
[2] abbreviates: qHTS primary screen hits, Table S2, several classes where COUNT > 1.
Where [3] appears, read: qHTS primary screen of LOPAC/NPACT libraries.

Where two headings read alike, the source gives them in different places.

One may read the IC50 as the point on the concentration scale where inhibition reaches its midpoint.

Turning to `CN(C)c1cccc(N2CCN(c3nn4c(=O)c5ccccc5nc4s3)CC2)c1.Cl` [NCGC00187811-01], under setting [1], the “Efficacy (%)” value is recorded as -35%, the “Curve Class” value is -2.4 and the IC50 is 50.1 µM.

For the compound `CN(C)c1cccc(-c2cnc(N3CCC(c4ncc[nH]4)CC3)s2)c1.O=C(O)C(F)(F)F` [NCGC00187899-01], under setting [1], the “Efficacy (%)” value is given as -34%, the “Curve Class” value is on record as -2.4 and the IC50 turned out to be 79.4 µM.

Turning to `CC(=O)NC(c1cccs1)c1cc(Br)c2cccnc2c1O` (stereo not shown) [NCGC00188370-02], where the note is “qHTS FP screen hits, Table S2”, the “Efficacy (%)” value is reported as -40% and the IC50 was found to be 45.5 µM.

With `O=C(Nc1ccc2ccccc2c1)Nc1nnc(-c2ccccn2)s1.O=C(O)C(F)(F)F` [NCGC00188528-01], under setting [1], the “Efficacy (%)” value is listed as -30% and the IC50 was determined as 56.2 µM. Further, the “Curve Class” value under setting [2] is listed as -2.4.

Regarding `Cc1nc(CNc2ncnc3ccc(-c4ccc(CO)o4)cc23)cs1.O=C(O)C(F)(F)F` [NCGC00188652-01], under setting [1], the “Efficacy (%)” value is -35% and the half-inhibitory concentration (IC50) amounted to 56.2 µM. Also, the “Curve Class” value under setting [2] is listed as -2.4.

As to `Cc1ccc(CNc2ncnc3ccc(-c4ccc(CO)o4)cc23)o1.O=C(O)C(F)(F)F` [NCGC00188654-01], under setting [1], the “Efficacy (%)” value is recorded as -45%, the “Curve Class” value is -2.2 and the IC50 was determined as 50.1 µM.

As for `O=C(O)C(F)(F)F.OCc1ccc(-c2ccc3ncnc(NCCc4c[nH]cn4)c3c2)o1` [NCGC00188669-01], under setting [1], the “Efficacy (%)” value is reported as -40% and the IC50 was found to be 44.7 µM. In addition, the “Curve Class” value under setting [2] is recorded as -2.4.

Consider `O=C(O)C(F)(F)F.OCc1ccc(-c2ccc3ncnc(NCc4ncc[nH]4)c3c2)o1` [NCGC00188670-01], for which, under setting [1], the “Efficacy (%)” value is on record as -33% and the IC50 came to 56.2 µM. Besides, the “Curve Class” value under setting [2] was -2.4.

`CCc1nnc(Nc2ncnc3scc(-c4cccc(S(C)(=O)=O)c4)c23)s1.O=C(O)C(F)(F)F` [NCGC00188733-01]: under setting [1], the “Efficacy (%)” value was -31% and the concentration for half-maximal inhibition (IC50) came to 50.1 µM. Also, the “Curve Class” value under setting [2] is -2.2.

Regarding `Cl.O=c1cc(CN2CCOCC2)occ1OCCCCCSc1ccnc2cc(C(F)(F)F)ccc12` [NCGC00188866-05], under setting [3], the “Efficacy (%)” value is reported as -26%, the “Curve Class” value was -2.4 and the IC50 stood at 39.8 µM.

As for `CCC(=O)NC(c1cccs1)c1cc(Cl)c2cccnc2c1O` (stereo not shown) [NCGC00188867-01], under setting [1], the “Efficacy (%)” value was -29% and the IC50 came out at 44.7 µM. In addition, the “Curve Class” value under setting [2] is recorded as -2.4.

Take `Cc1ccc(CNc2ncnc3ccc(-c4ccc([C@@H](C)O)o4)cc23)o1` [NCGC00189252-01]: where the note is “qHTS FP screen hits, Table S2”, the “Efficacy (%)” value is recorded as -27% and the IC50 amounted to 12.6 µM.

In the case of `O=C(O)C(F)(F)F.O=C(O)c1ccc(-c2ccc3ncnc(NCc4cccs4)c3c2)o1` [NCGC00189277-01], under setting [1], the “Efficacy (%)” value is -25% and the 50% inhibitory concentration (IC50) came out at 89.1 µM. The “Curve Class” value under setting [2] was -2.4.

Take `Cc1ccc(N[S+](=O)([O-])c2cc3c(cc2N[C@@H](C)CO)NC(=O)CC3)cc1N[C@@H](C)CO` [NCGC00189369-01]: under setting [1], the “Efficacy (%)” value is reported as -29% and the IC50 amounted to 70.8 µM. For the same compound, the “Curve Class” value under setting [2] is given as -2.4.

For the compound `O=C(Nc1ccccc1)c1ccccc1NC(=O)C1CCCCC1` [NCGC00189487-01], under setting [1], the “Efficacy (%)” value was -27% and the IC50 was determined as 56.2 µM. The “Curve Class” value under setting [2] is recorded as -2.4.

As for `COc1ccc(NC(=O)c2cccs2)cn1.O=C(O)C(F)(F)F` [NCGC00229661-01], under setting [1], the “Efficacy (%)” value is on record as -41% and the IC50 turned out to be 50.1 µM. The “Curve Class” value under setting [2] is reported as -2.2.

For `O=C1CCCC2=C1C(c1n[nH]cc1Br)N=C(Nc1nc3ccccc3o1)N2` (stereo not shown) [NCGC00229723-01], under setting [1], the “Efficacy (%)” value is -18%, the “Curve Class” value was -2.4 and the IC50 came to 50.1 µM.

Turning to `Cc1cc(C2N=C(Nc3nc4ccccc4o3)NC3=C2C(=O)CCC3)n[nH]1.O=C(O)C(F)(F)F` (stereo not shown) [NCGC00229726-01], under setting [1], the “Efficacy (%)” value was -26% and the IC50 turned out to be 56.2 µM. For the same compound, under setting [2], the “Curve Class” value is on record as -2.4.
